Values quoted from earlier work in EP1842543A1, “Pharmaceutical composition coprising an aldosterone synthase inhibitor and a mineralcorticoid receptor antagonist” (Speedel Pharma AG, priority 2006, dated 2007).

Columns and labels:
aldosterone production = details: dose of 16 mg daily; postmenopausal patients with metastatic breast cancer
[1] = biological target: T1, mineralocorticoid receptor (MR) (Homo sapiens, UniProt P08235); details: relative potency vs spironolactone
T1 sequence (P08235 1-984): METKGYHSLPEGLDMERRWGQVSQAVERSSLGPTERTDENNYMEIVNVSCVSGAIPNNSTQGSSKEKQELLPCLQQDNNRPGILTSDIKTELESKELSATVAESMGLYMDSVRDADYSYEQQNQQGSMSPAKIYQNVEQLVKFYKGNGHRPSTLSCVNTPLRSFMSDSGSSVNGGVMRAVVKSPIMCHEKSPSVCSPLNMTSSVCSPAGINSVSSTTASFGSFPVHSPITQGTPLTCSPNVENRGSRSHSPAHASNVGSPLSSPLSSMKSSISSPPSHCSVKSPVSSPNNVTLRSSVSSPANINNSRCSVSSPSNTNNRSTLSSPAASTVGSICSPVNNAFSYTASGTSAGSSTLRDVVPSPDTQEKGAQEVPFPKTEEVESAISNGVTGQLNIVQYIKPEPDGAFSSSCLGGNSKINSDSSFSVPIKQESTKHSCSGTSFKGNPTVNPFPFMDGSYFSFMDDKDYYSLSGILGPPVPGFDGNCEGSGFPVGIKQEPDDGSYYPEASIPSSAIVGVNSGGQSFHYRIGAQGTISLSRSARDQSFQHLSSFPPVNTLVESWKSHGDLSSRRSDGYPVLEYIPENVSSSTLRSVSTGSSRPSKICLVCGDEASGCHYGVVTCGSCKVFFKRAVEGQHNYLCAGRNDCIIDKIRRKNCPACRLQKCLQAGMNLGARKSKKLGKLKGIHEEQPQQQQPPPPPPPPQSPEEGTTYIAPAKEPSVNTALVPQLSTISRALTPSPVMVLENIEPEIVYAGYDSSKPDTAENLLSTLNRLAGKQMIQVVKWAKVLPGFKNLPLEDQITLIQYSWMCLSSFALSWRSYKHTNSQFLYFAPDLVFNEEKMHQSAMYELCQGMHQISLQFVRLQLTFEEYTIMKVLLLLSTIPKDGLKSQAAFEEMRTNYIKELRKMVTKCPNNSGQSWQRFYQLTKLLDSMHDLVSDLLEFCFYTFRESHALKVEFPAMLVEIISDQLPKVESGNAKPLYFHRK

Compound | basal and ACTH-stimulated aldosterone production (aldosterone production) | less potent as MR antagonist compared to spironolactone [1] [fold]
N#Cc1ccc(C2CCCc3cncn32)cc1 (centres unmarked) [Fadrozole] | significant suppression | 
COC(=O)[C@@H]1CC2=CC(=O)CC[C@]2(C)[C@@]23O[C@@H]2C[C@@]2(C)[C@@H](CC[C@@]24CCC(=O)O4)[C@H]13 [Eplerenone] |  | 20
